≈ marks a conversion by molar mass, not a printed value. Where “and” joins values, the source holds several entries; their conditions need not be identical. Identical values can stand only once. Like-named read-outs stand apart in the source and are kept apart here.
Legend:
E. coli = test: Antibacterial activity, MIC by microdilution broth method (CLSI); conditions: E. coli ATCC 25922; CA-MHB, 37 °C, 20 h
M. avium = test: MIC in 7H9 liquid medium, 2 weeks; assay type: cell-based; conditions: Mycobacterium avium, ATCC25291, 336 h, M. avium ATCC 25291, 37 °C, minimum concentration inhibiting at least 50% of growth
[1] = target: T1, MraYSA (S. aureus MraY enzyme) (Staphylococcus aureus, UniProt Q2FZ93); test: Fluorescence-based MraY inhibitory assay (dansylated Park's nucleotide); conditions: for MraYSA activity, source data of Fig. 7b, average: average of n=1-3
T1 sequence (Q2FZ93 1-321): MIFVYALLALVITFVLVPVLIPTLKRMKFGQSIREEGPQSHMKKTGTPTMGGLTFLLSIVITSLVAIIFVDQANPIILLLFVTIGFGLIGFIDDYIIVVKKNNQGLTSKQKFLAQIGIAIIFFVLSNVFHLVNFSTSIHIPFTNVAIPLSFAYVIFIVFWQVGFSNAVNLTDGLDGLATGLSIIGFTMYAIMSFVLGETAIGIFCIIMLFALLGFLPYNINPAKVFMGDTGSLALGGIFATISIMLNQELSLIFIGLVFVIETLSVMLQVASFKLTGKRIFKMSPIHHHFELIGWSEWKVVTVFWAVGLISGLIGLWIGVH

E. faecium = test: Antibacterial activity, MIC by microdilution broth method (CLSI); assay type: cell-based, Enterococcus faecium
Gram-positive bacteria = test: Antibacterial activity against Gram-positive bacteria; assay type: cell-based
A. baumannii = test: Antibacterial activity, MIC by microdilution broth method (CLSI); assay type: cell-based; conditions: Acinetobacter baumannii, ATCC19606; A. baumannii ATCC 19606; CA-MHB, 37 °C, 20 h
E. cloacae = test: as above; assay type: cell-based; conditions: Enterobacter cloacae, ATCC13047; E. cloacae ATCC 13047; CA-MHB, 37 °C, 20 h
[2] = system: Gram-negative bacterial strains; test: Antibacterial activity against Gram-negative bacteria; assay type: cell-based; conditions: four Gram-negative bacterial strains examined
P. aeruginosa = test: Antibacterial activity, MIC by microdilution broth method (CLSI); assay type: cell-based; conditions: Pseudomonas aeruginosa, ATCC27853; P. aeruginosa ATCC 27853; CA-MHB, 37 °C, 20 h
MraYAA = MraYAA (Aquifex aeolicus, UniProt O66465); test: UMP-Glo assay; conditions: for Normalized (UMP / Lipid I formed minus no-enzyme average), source data of Fig. 7a: replicates 1-3
M. tuberculosis = test: MIC in 7H9 liquid medium, 2 weeks; assay type: cell-based; conditions: Mycobacterium tuberculosis, 336 h, M. tuberculosis H37Rv, 37 °C, minimum concentration inhibiting at least 50% of growth
S. aureus = test: Antibacterial activity, MIC by microdilution broth method (CLSI); assay type: cell-based, Staphylococcus aureus; conditions: for MIC: Staphylococcus aureus
K. pneumoniae = test: as above; assay type: cell-based; conditions: Klebsiella pneumoniae, ATCC13883; K. pneumoniae ATCC 13883; CA-MHB, 37 °C, 20 h
E. faecalis = test: as above; assay type: cell-based; conditions: for MIC: Enterococcus faecalis
[3] = Enterococcus faecium, ATCC35667, 20 h, E. faecium ATCC 35667, CA-MHB, 37 °C, 20 h, read-out: MIC
[4] = ATCC29213, 20 h, S. aureus ATCC 29213, CA-MHB, 37 °C, 20 h

Chain of MraYAA (O66465 whole entry): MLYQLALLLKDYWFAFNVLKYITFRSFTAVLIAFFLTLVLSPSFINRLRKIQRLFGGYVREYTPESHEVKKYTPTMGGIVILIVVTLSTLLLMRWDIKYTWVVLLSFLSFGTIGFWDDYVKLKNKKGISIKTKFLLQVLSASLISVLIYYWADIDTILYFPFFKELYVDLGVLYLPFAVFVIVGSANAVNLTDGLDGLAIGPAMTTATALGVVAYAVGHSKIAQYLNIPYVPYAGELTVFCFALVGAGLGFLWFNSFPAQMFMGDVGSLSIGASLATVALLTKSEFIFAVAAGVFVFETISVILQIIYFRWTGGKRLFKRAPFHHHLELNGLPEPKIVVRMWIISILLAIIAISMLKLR

SMILES: CCCCCCCCCCCCCCCC(=O)O[C@@H]1[C@H](O)CN2C[C@H]1NC[C@H]1O[C@@H](O[C@H]([C@H]3O[C@@H](n4ccc(=O)[nH]c4=O)[C@H](O)[C@@H]3O)[C@H]2C(=O)O)[C@H](O)[C@@H]1O [SPM-2]
- MIC (E. coli): >64 µg/mL
- MIC (M. avium): 16 µg/mL (≈ 20.4 µM)
- IC50 [1]: 0.33 µM
- MraYSA activity, source data of Fig. 7b, average ([1]; compound 0.0001 µM): 104.091
- MraYSA activity, source data of Fig. 7b, average ([1]; compound 0.001 µM): 99.892
- MraYSA activity, source data of Fig. 7b, average ([1]; compound 0.01 µM): 103.991
- MraYSA activity, source data of Fig. 7b, average ([1]; compound 0.1 µM): 72.6566
- MraYSA activity, source data of Fig. 7b, average ([1]; compound 1 µM): 26.5839
- MraYSA activity, source data of Fig. 7b, average ([1]; compound 10 µM): 7.955
- MraYSA activity, source data of Fig. 7b, average ([1]; compound 100 µM): 4.902
- MIC (E. faecium; [3]): 16 µg/mL (≈ 20.4 µM)
- MIC increase relative to SPM-1 (Gram-positive bacteria; Gram-positive pathogens): 4 fold
- antibacterial activity against Gram-positive bacteria (Gram-positive bacteria; such as S. aureus and E. faecium): active
- MIC (A. baumannii): > 64 µg/mL
- MIC (E. cloacae): > 64 µg/mL
- antibacterial activity against Gram-negative bacterial strains [2]: inactive
- MIC (P. aeruginosa): > 64 µg/mL
- IC50 (MraYAA): 9.2 µM
- Normalized (UMP / Lipid I formed minus no-enzyme average), source data of Fig. 7a (MraYAA; inhibitor concentration 0.1): 34.6720 and 31.83 and 31.8908
- Normalized (UMP / Lipid I formed minus no-enzyme average), source data of Fig. 7a (MraYAA; inhibitor concentration 0.4): 29.3499 and 29.56 and 31.6856
- Normalized (UMP / Lipid I formed minus no-enzyme average), source data of Fig. 7a (MraYAA; inhibitor concentration 1): 31.9846 and 31.04 and 28.7608
- Normalized (UMP / Lipid I formed minus no-enzyme average), source data of Fig. 7a (MraYAA; inhibitor concentration 2.5): 26.0302 and 21.75 and 21.7826
- Normalized (UMP / Lipid I formed minus no-enzyme average), source data of Fig. 7a (MraYAA; inhibitor concentration 5): 29.9822 and 25.5 and 23.2193
- Normalized (UMP / Lipid I formed minus no-enzyme average), source data of Fig. 7a (MraYAA; inhibitor concentration 12.5): 17.4410 and 14.04 and 12.8545
- Normalized (UMP / Lipid I formed minus no-enzyme average), source data of Fig. 7a (MraYAA; inhibitor concentration 25): 11.3284 and 8.499 and 7.57
- Normalized (UMP / Lipid I formed minus no-enzyme average), source data of Fig. 7a (MraYAA; inhibitor concentration 50): 4.6362 and 4.593 and 4.08
- Normalized (UMP / Lipid I formed minus no-enzyme average), source data of Fig. 7a (MraYAA; inhibitor concentration 70): 3.9512 and 2.534 and 2.592
- Normalized (UMP / Lipid I formed minus no-enzyme average), source data of Fig. 7a (MraYAA; inhibitor concentration 140): 2.0542 and 1.162 and 1.464
- MIC (M. tuberculosis): > 32 µg/mL
- MIC (S. aureus; [4]): > 64 µg/mL
- MIC (K. pneumoniae): > 64 µg/mL

SMILES: CN[C@H](CC(C)C)C(=O)N[C@H]1C(=O)N[C@@H](CC(N)=O)C(=O)N[C@H]2C(=O)N[C@H]3C(=O)N[C@H](C(=O)N[C@H](C(=O)O)c4cc(O)cc(O)c4-c4cc3ccc4O)[C@H](O)c3ccc(c(Cl)c3)Oc3cc2cc(c3O[C@@H]2O[C@H](CO)[C@@H](O)[C@H](O)[C@H]2O[C@H]2C[C@](C)(N)[C@H](O)[C@H](C)O2)Oc2ccc(cc2Cl)[C@H]1O [Vancomycin]
- MIC (E. faecium; E. faecium (VRE) ATCC 51559): >128 µg/mL
- MIC (E. faecium; [3]): 0.5 µg/mL (≈ 0.345 µM)
- MIC (E. faecium; Enterococcus faecium, ATCC 51559 / VRE, E. faecium (VRE) ATCC 51559, read-out: MIC): > 128 µg/mL
- MIC (E. faecium; Enterococcus faecium, ATCC 51858 / VRE, E. faecium (VRE) ATCC 51858, read-out: MIC): 128 µg/mL (≈ 88.3 µM)
- MIC (E. faecium; Enterococcus faecium, clinically isolated E. faecium strain 1, read-out: MIC): 1 µg/mL (≈ 0.69 µM)
- MIC (E. faecium; Enterococcus faecium, clinically isolated E. faecium strain 2, read-out: MIC): 1 µg/mL (≈ 0.69 µM)
- MIC (E. faecium; Enterococcus faecium, clinically isolated E. faecium strain 3, read-out: MIC): 1 µg/mL (≈ 0.69 µM)
- MIC (E. faecium; Enterococcus faecium, clinically isolated E. faecium strain 4, read-out: MIC): 1 µg/mL (≈ 0.69 µM)
- MIC (E. faecium; Enterococcus faecium, clinically isolated E. faecium strain 5, read-out: MIC): 1 µg/mL (≈ 0.69 µM)
- MIC (E. faecium; Enterococcus faecium, clinically isolated E. faecium strain 7, read-out: MIC): 0.5 µg/mL (≈ 0.345 µM)
- MIC (E. faecium; Enterococcus faecium, clinically isolated E. faecium strain 8, read-out: MIC): 1 µg/mL (≈ 0.69 µM)
- MIC (E. faecium; Enterococcus faecium, clinically isolated E. faecium strain 9, read-out: MIC): 1 µg/mL (≈ 0.69 µM)
- MIC (E. faecium; Enterococcus faecium, clinically isolated E. faecium strain 10, read-out: MIC): 1 µg/mL (≈ 0.69 µM)
- MIC (E. faecium; Enterococcus faecium, clinically isolated E. faecium strain 11, read-out: MIC): 1 µg/mL (≈ 0.69 µM)
- MIC (E. faecium; Enterococcus faecium, clinically isolated E. faecium strain 13, read-out: MIC): 1 µg/mL (≈ 0.69 µM)
- MIC (E. faecium; Enterococcus faecium, clinically isolated E. faecium strain 14, read-out: MIC): 0.5 µg/mL (≈ 0.345 µM)
- MIC (E. faecium; Enterococcus faecium, clinically isolated E. faecium strain 15, read-out: MIC): 1 µg/mL (≈ 0.69 µM)
- MIC (range over strains) (E. faecium; clinically isolated E. faecium (14 strains)): 0.5 to 1 µg/mL
- MIC (E. faecalis; ATCC 51299 / VRE, E. faecalis (VRE) ATCC 51299): 128 µg/mL (≈ 88.3 µM)
- MIC (E. faecalis; clinically isolated E. faecalis strain 21): 1 µg/mL (≈ 0.69 µM)
- MIC (E. faecalis; clinically isolated E. faecalis strain 22): 1 µg/mL (≈ 0.69 µM)
- MIC (E. faecalis; clinically isolated E. faecalis strain 23): 1 µg/mL (≈ 0.69 µM)
- MIC (E. faecalis; clinically isolated E. faecalis strain 24): 1 µg/mL (≈ 0.69 µM)
- MIC (E. faecalis; clinically isolated E. faecalis strain 25): 1 µg/mL (≈ 0.69 µM)
- MIC (E. faecalis; clinically isolated E. faecalis strain 26): 1 µg/mL (≈ 0.69 µM)
- MIC (E. faecalis; clinically isolated E. faecalis strain 27): 1 µg/mL (≈ 0.69 µM)
- MIC (E. faecalis; clinically isolated E. faecalis strain 28): 1 µg/mL (≈ 0.69 µM)
- MIC (E. faecalis; clinically isolated E. faecalis strain 29): 1 µg/mL (≈ 0.69 µM)
- MIC (E. faecalis; clinically isolated E. faecalis strain 30): 1 µg/mL (≈ 0.69 µM)
- MIC (E. faecalis; clinically isolated E. faecalis strain 31): 4 µg/mL (≈ 2.76 µM)
- MIC (E. faecalis; clinically isolated E. faecalis strain 32): 1 µg/mL (≈ 0.69 µM)
- MIC (E. faecalis; clinically isolated E. faecalis strain 33): 2 µg/mL (≈ 1.38 µM)
- MIC (E. faecalis; clinically isolated E. faecalis strain 34): 1 µg/mL (≈ 0.69 µM)
- MIC (E. faecalis; clinically isolated E. faecalis strain 35): 1 µg/mL (≈ 0.69 µM)
- MIC (range over strains) (E. faecalis; clinically isolated E. faecalis (15 strains)): 1 to 4 µg/mL
- MIC (S. aureus; [4]): 1 µg/mL (≈ 0.69 µM)
- MIC (S. aureus; MRSA, 20 h, S. aureus (MRSA) JE2, CA-MHB, 37 °C, performed once): 1 µg/mL (≈ 0.69 µM)
- MIC (S. aureus; MRSA, clinically isolated MRSA #1958): 1 µg/mL (≈ 0.69 µM)
- MIC (S. aureus; MRSA, clinically isolated MRSA #2071): 1 µg/mL (≈ 0.69 µM)
- MIC (S. aureus; MRSA, clinically isolated MRSA #2110): 2 µg/mL (≈ 1.38 µM)
- MIC (S. aureus; MRSA, clinically isolated MRSA #2310): 2 µg/mL (≈ 1.38 µM)
- MIC (S. aureus; MRSA, clinically isolated MRSA #2334): 2 µg/mL (≈ 1.38 µM)
- MIC (S. aureus; MRSA, clinically isolated MRSA #2931): 1 µg/mL (≈ 0.69 µM)
- MIC (S. aureus; MRSA, clinically isolated MRSA #2932): 2 µg/mL (≈ 1.38 µM)
- MIC (S. aureus; MRSA, clinically isolated MRSA #2933): 1 µg/mL (≈ 0.69 µM)
- MIC (S. aureus; MRSA, clinically isolated MRSA #2934): 1 µg/mL (≈ 0.69 µM)
- MIC (S. aureus; MRSA, clinically isolated MRSA #2935): 2 µg/mL (≈ 1.38 µM)
- MIC (range over strains) (S. aureus; clinically isolated MRSA (10 strains)): 1 to 2 µg/mL

From paper PMC9768162, “Synthesis of macrocyclic nucleoside antibacterials and their interactions with MraY” (Nature Communications, 2022)
